Measured values taken from ChEMBL document CHEMBL1140180, “Antiproliferative triterpenes from Melaleuca ericifolia” (J Nat Prod, 2008).
pIC50: −log10 of the molar value.

Assay: Antiproliferative activity against mouse +SA mammary epithelial cells after 4 days by MTT assay
Format: functional, cell-based
Settings: Epithelial cell, 96 h

| SMILES | pIC50 |
| --- | --- |
| C[C@H]1CO[C@]23CC[C@@H]1[C@@H]2[C@H]1CC[C@@H]2[C@@]4(C)CC[C@H](O)C(C)(C)[C@@H]4CC[C@@]2(C)[C@]1(C)CC3 | 4.74 |
| C[C@H]1[C@H](C)CC[C@]2(C(=O)O)CC[C@]3(C)C(=CC[C@@H]4[C@@]5(C)CC[C@H](O)C(C)(C)[C@@H]5CC[C@]43C)[C@H]12 [URSOLIC ACID] | < 4.70 |
| C=C(C)[C@@H]1CC[C@]2(CO)CC[C@]3(C)[C@H](CC[C@@H]4[C@@]5(C)CC[C@H](O)C(C)(C)[C@@H]5CC[C@]43C)[C@@H]12 [BETULIN] | < 4.70 |
| C=C(C)[C@@H]1CC[C@]2(O)CC[C@]3(C)[C@H](CC[C@@H]4[C@@]5(C)CC[C@H](O)C(C)(C)[C@@H]5CC[C@]43C)[C@@H]12 | 4.73 |
| C[C@H]1[C@H](C)CC[C@]2(C(=O)O)CC[C@]3(C)C(=CC[C@@H]4[C@@]5(C)C[C@@H](O)[C@H](O)[C@@](C)(CO)[C@@H]5CC[C@]43C)[C@H]12 [ASIATIC ACID] | < 4.70 |
| CC(=O)[C@@H]1CC[C@]2(C(=O)O)CC[C@]3(C)[C@H](CC[C@@H]4[C@@]5(C)CC[C@H](O)C(C)(C)[C@@H]5CC[C@]43C)[C@@H]12 [PLATANIC ACID] | < 4.70 |
| C=C(C)[C@@H]1CC[C@]2(C(=O)O)CC[C@]3(C)[C@H](CC[C@@H]4[C@@]5(C)CC[C@H](O)C(C)(C)[C@@H]5CC[C@]43C)[C@@H]12 [BETULINIC ACID] | < 4.70 |
| C=C(C)[C@@H]1CC[C@@]2(OO)CC[C@]3(C)[C@H](CC[C@@H]4[C@@]5(C)CC[C@H](O)C(C)(C)[C@@H]5CC[C@]43C)[C@@H]12 | < 4.70 |
| C=C(C)[C@@H]1CC[C@]2(C=O)CC[C@]3(C)[C@H](CC[C@@H]4[C@@]5(C)CC[C@H](O)C(C)(C)[C@@H]5CC[C@]43C)[C@@H]12 [BETULINALDEHYDE] | 4.71 |
| C=C(C)[C@@H]1CC[C@]2(OO)CC[C@]3(C)[C@H](CC[C@@H]4[C@@]5(C)CC[C@H](O)C(C)(C)[C@@H]5CC[C@]43C)[C@@H]12 | 4.81 |
